In patent US9732298B2, “Process for the treatment of liquefied hydrocarbon gas using 3-(amino) propane-1,2-diol compounds” (Dow Global Technologies LLC, priority 2012, dated 2017):

Key:
[1] = pKa by automated Mettler Toledo titration; type: physicochemical; conditions: aqueous amine solution; 50 weight % aqueous amine solutions titrated with 0.5 N hydrochloric acid
[2] = Solubility of tested amine in heptane phase by gas chromatography (toluene internal standard); conditions: GC peak area of tested amine in neat heptane phase; heptane 10 g, toluene 0.1 g, amine 2.5 g, mixed at 20° C. for 1 hour, decanted 15 minutes; average of three injections
Procedure: A solution of heptane (10 g), toluene (0.1 g) and the tested amine (2.5 g) are mixed at 20° C. for 1 hours. The mixture is decanted for 15 minutes and the neat heptane phase is analyzed by gas chromatography using toluene as internal standard. The injection is repeated three times and peak areas of tested amine are averaged.

pKa [1]	area counts [2]	SMILES
9.3	0 counts	NCC(O)CO (stereo not drawn) [APD]
8.5	290 counts	CN(CCO)CC(O)CO (stereo not drawn) [HEMAPD]
9.7	176 counts	CNCC(O)CO (stereo not drawn) [MAPD]
